Data taken from patent US20040106626A1, “6-Membered unsaturated heterocyclic compounds useful for selective inhibition of the coagulation cascade” (Pharmacia Corporation, priority 2001, published 2004).

Experiments:
Type in all cases: biochemical
[1] = target: T1, recombinant soluble tissue factor and recombinant human factor VIIa (TF-VIIa) (Homo sapiens, UniProt P08709); test: TF-VIIa assay (chromogenic substrate hydrolysis); settings: reported only as less than or greater than 0.1 uM
T1 construct: conversion of coagulation factor VII to VIIa by factor Xa; purchased American Diagnostica, Greenwich CT; host or cells: soluble TF made in house in E. coli
Outline: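 Chromogenic read at OD405, compared with control for percent inhibition. Substrate N-methylsulfonyl-D-phe-gly-arg-p-nitroaniline at 0.4 mM is cleaved by recombinant human VIIa (2 nM) complexed with soluble TF (100 nM). Buffer: pH 8.0 Tris-HCl 50 mM, CaCl2 5 mM, NaCl 100 mM, BSA 0.1%.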

Human factor Xa = target: T2, Human factor Xa (Homo sapiens, UniProt P00742); test: Xa assay (chromogenic substrate S-2765); settings: reported only as less than or greater than 30 uM; read-out: Factor Xa (II) IC50
T2 construct: purchased Enzyme Research Laboratories, South Bend Ind
Outline: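 Chromogenic readout: S-2765 hydrolysis (0.15 mM) by 0.3 nM human FXa was monitored at 405 nm after 60 min at room temperature, with a time-zero background read. Buffer: 50 mM Tris-HCl, pH 8.0, 100 mM NaCl, 0.1% BSA. Inhibition is relative to buffer-only controls.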

Human thrombin = target: T3, Human thrombin (Homo sapiens, UniProt P00734); test: Thrombin assay (chromogenic substrate); settings: reported only as less than or greater than 30 uM; read-out: Thrombin (II) IC50
T3 construct: converts prothrombin (II) to thrombin (IIa); purchased Calbiochem, La Jolla, Calif
Outline: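 Percent inhibition derived by comparing OD405 nm of compound-treated and control samples. Thrombin cleavage of a p-nitroanilide chromogenic substrate provides the signal.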

[2] = test system: Normal human pooled plasma; test: Prothrombin time (PT) clotting assay; settings: concentration at which prothrombin time is prolonged by 2x normal, reported as less than or greater than 50 uM
Outline: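 Normal human pooled plasma incubated with 100 uM compound or saline, then thromboplastin (human tissue factor) added and clotting time recorded in a coagulation machine. Compounds exceeding 3× normal PT (11.0 s) are titrated to find the concentration doubling PT.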

T1 sequence (P08709 213-466 limits assumed): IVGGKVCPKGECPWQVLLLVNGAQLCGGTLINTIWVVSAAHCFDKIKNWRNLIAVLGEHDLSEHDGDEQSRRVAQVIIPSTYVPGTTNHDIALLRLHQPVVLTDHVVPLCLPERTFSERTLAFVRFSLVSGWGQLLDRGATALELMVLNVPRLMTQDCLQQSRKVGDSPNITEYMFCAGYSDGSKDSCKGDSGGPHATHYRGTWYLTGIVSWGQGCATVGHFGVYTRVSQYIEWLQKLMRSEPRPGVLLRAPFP
T1 sequence (P08709 61-212 limits assumed): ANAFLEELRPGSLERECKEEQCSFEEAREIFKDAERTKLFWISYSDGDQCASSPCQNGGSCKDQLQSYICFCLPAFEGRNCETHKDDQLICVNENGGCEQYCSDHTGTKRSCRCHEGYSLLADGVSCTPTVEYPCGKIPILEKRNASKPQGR
T1 sequence (P13726 33-251 partner limits assumed): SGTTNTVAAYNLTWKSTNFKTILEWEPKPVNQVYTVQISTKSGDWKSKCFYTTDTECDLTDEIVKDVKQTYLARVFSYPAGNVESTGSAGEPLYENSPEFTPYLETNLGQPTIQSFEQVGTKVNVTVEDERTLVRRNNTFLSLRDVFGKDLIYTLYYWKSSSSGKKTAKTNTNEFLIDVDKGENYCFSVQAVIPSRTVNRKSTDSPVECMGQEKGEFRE
T2 sequence (P00742 235-488 limits assumed): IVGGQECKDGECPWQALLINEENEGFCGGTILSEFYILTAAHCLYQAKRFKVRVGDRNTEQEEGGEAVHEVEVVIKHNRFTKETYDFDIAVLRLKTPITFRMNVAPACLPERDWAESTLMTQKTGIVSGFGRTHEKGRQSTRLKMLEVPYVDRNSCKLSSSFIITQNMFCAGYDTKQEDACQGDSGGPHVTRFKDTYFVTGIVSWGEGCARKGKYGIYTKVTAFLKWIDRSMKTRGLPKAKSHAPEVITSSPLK
T2 sequence (P00742 41-179 limits assumed): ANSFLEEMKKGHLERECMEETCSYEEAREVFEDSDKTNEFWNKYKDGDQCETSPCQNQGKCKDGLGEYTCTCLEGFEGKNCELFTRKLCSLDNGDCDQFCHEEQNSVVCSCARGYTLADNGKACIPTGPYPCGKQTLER

Row | SMILES | IC50 [1] | IC50 (Human factor Xa) | IC50 (Human thrombin) | PT (Prothrombin time) 2xPT [2]
1 | CC(C)Nc1ncc(-c2cc(N)cc(NC(=O)C3CC3)c2)n(CC(=O)NCc2ccc(C(=N)N)cc2)c1=O.O=C(O)C(F)(F)F.O=C(O)C(F)(F)F [Example 144] | < 0.1 µM | > 30 µM | > 30 µM | <50.0 µM
2 | CC(C)Nc1ncc(-c2cc(N)cc(C(=O)NCc3ccccc3)c2)n(CC(=O)NCc2ccc(C(=N)N)c(O)c2)c1=O.O=C(O)C(F)(F)F [Example 161, 3-amino-5-[1-[2-({4-[amino(imino)methyl]-3-hydroxybenzyl}amino)-2-oxoethyl]-5-(isopropylamino)-6-oxo-1,6-dihydropyrazin-2-yl]-N-benzylbenzamide] | < 0.1 µM | > 30 µM | > 30 µM | <50.0 µM
3 | CC(C)Nc1ncc(-c2cc(N)cc(C(=O)NCc3ccc(F)cc3)c2)n(CC(=O)NCc2ccc(C(=N)N)c(O)c2)c1=O.O=C(O)C(F)(F)F [Example 162, 3-amino-5-[1-[2-({4-[amino(imino)methyl]-3-hydroxybenzyl}amino)-2-oxoethyl]-5-(isopropylamino)-6-oxo-1,6-dihydropyrazin-2-yl]-N-(4-fluorobenzyl) benzamide] | < 0.1 µM | > 30 µM | > 30 µM | <50.0 µM
4 | CC[C@H](C)NC(=O)c1cc(N)cc(-c2cnc(NC(C)C)c(=O)n2CC(=O)NCc2c(F)c(O)c(C(=N)N)c(F)c2F)c1.Cl.Cl [Example 164] | < 0.1 µM | > 30 µM | > 30 µM | <50.0 µM
5 | COC(=O)CCNC(=O)c1cc(N)cc(-c2cnc(NC(C)C)c(=O)n2CC(=O)NCc2ccc(C(=N)N)cc2)c1 [Example 165] | < 0.1 µM | > 30 µM | > 30 µM | <50.0 µM
6 | CC(C)Nc1ncc(-c2cc(N)cc(C(=O)NCc3cccc(O)c3)c2)n(CC(=O)NCc2ccc(C(=N)N)cc2)c1=O [Example 166] | < 0.1 µM | > 30 µM | > 30 µM | <50.0 µM
7 | CC[C@H](C)NC(=O)c1cc(N)cc(-c2cnc(NC(C)C)c(=O)n2CC(=O)NCc2ccc(C(=N)N)cc2O)c1.O=C(O)C(F)(F)F [Example 167, 3-amino-5-[1-[2-({4-[amino(imino)methyl]-2-hydroxybenzyl}amino)-2-oxoethyl]-5-(isopropylamino)-6-oxo-1,6-dihydropyrazin-2-yl]-N-[(1S)-1-methylpropyl]benzamide] | < 0.1 µM | > 30 µM | < 30 µM | <50.0 µM
8 | COC(=O)c1ccc(CNC(=O)c2cc(N)cc(-c3cnc(NC(C)C)c(=O)n3CC(=O)NCc3ccc(C(=N)N)cc3)c2)cc1.O=C(O)C(F)(F)F [Example 169] | < 0.1 µM | > 30 µM | < 30 µM | <50.0 µM
9 | Cc1cc(N)cc(-c2cnc(NC(C)C)c(=O)n2CC(=O)NCc2ccc(C(=N)N)cc2)c1.Cl.Cl [Example 170] | < 0.1 µM | > 30 µM | > 30 µM | <50.0 µM
10 | CC(C)Nc1ncc(-c2cc(N)cc(C(=O)NCc3ccc(C(=O)O)cc3)c2)n(CC(=O)NCc2ccc(C(=N)N)cc2)c1=O.O=C(O)C(F)(F)F.O=C(O)C(F)(F)F [Example 171] | < 0.1 µM | > 30 µM | > 30 µM | <50.0 µM
11 | CC(C)Nc1ncc(-c2cc(N)cc(C(=O)NCCC(=O)O)c2)n(CC(=O)NCc2ccc(C(=N)N)cc2)c1=O.O=C(O)C(F)(F)F.O=C(O)C(F)(F)F [Example 172] | < 0.1 µM | > 30 µM | > 30 µM | <50.0 µM
12 | COc1ccc(CNC(=O)c2cc(N)cc(-c3cnc(NC(C)C)c(=O)n3CC(=O)NCc3ccc(C(=N)N)cc3)c2)cc1.O=C(O)C(F)(F)F.O=C(O)C(F)(F)F [Example 174] | < 0.1 µM | > 30 µM | > 30 µM | <50.0 µM
13 | CC(=O)Oc1cc(N)cc(-c2cnc(NC(C)C)c(=O)n2CC(=O)NCc2ccc(C(=N)N)cc2)c1.O=C(O)C(F)(F)F [Example 175] | < 0.1 µM | > 30 µM | > 30 µM | <50.0 µM
14 | CC(C)Nc1ncc(-c2cc(N)cc(C(=O)NCc3ccc(O)cc3)c2)n(CC(=O)NCc2ccc(C(=N)N)cc2)c1=O.O=C(O)C(F)(F)F [Example 176] | < 0.1 µM | > 30 µM | > 30 µM | <50.0 µM
15 | COc1cccc(CNC(=O)c2cc(N)cc(-c3cnc(NC(C)C)c(=O)n3CC(=O)NCc3ccc(C(=N)N)cc3)c2)c1.O=C(O)C(F)(F)F [Example 177] | < 0.1 µM | > 30 µM | > 30 µM | <50.0 µM
16 | N=C(N)c1ccc(CNC(=O)Cn2c(-c3cc(N)cc(O)c3)cnc(NC3CC3)c2=O)cc1.O=C(O)C(F)(F)F.O=C(O)C(F)(F)F [Example 179] | < 0.1 µM | > 30 µM | > 30 µM | <50.0 µM
17 | CC(C)Nc1ncc(-c2cc(N)cc(O)c2)n(CC(=O)NCc2ccc(C(=N)N)c(O)c2)c1=O.O=C(O)C(F)(F)F [Example 181, 2-[6-(3-amino-5-hydroxyphenyl)-3-(isopropylamino)-2-oxopyrazin-1 (2H)-yl]-N-{4-[amino(imino)methyl]-3-hydroxybenzyl}acetamide] | > 0.1 µM | > 30 µM | > 30 µM | >50.0 µM
18 | CC[C@@H](C)NC(=O)c1cc(N)cc(-c2cnc(NC(C)C)c(=O)n2CC(=O)NCc2ccc(C(=N)N)cc2OC)c1.O=C(O)C(F)(F)F.O=C(O)C(F)(F)F [Example 182, 3-amino-5-[1-[2-({4-[amino(imino)methyl]-2-methoxybenzyl}amino)-2-oxoethyl]-5-(isopropylamino)-6-oxo-1,6-dihydropyrazin-2-yl]-N-[(1R)-1-methylpropyl]benzamide] | < 0.1 µM | > 30 µM | < 30 µM | <50.0 µM
19 | CC[C@@H](C)NC(=O)c1cc(N)cc(-c2cnc(NC(C)C)c(=O)n2CC(=O)NCc2c(F)c(O)c(C(=N)N)c(F)c2F)c1.Cl.Cl [Example 185, 3-[1-[2-({4-[amino(imino)methyl]-2,3,6-trifluoro-5-hydroxybenzyl}amino)-2-oxoethyl]-5-(isopropylamino)-6-oxo-1,6-dihydropyrazin-2-yl]-N-[(1R)-1-methylpropyl]-5-aminobenzamide Dihydrochloride] | < 0.1 µM | > 30 µM | > 30 µM | <50.0 µM
20 | CC(C)Nc1ncc(-c2cc(N)cc(C(=O)NCc3ccc(F)c(O)c3)c2)n(CC(=O)NCc2ccc(C(=N)N)cc2)c1=O.O=C(O)C(F)(F)F [Example 186] | < 0.1 µM | > 30 µM | > 30 µM | <50.0 µM
21 | CCCCOC(=O)c1cc(N)cc(-c2cnc(NC(C)C)c(=O)n2CC(=O)NCc2ccc(C(=N)N)cc2)c1.O=C(O)C(F)(F)F [Example 187] | < 0.1 µM | > 30 µM | > 30 µM | <50.0 µM
22 | CC[C@H](C)NC(=O)c1cc(N)cc(-c2cnc(N[C@@H](C)C(C)C)c(=O)n2CC(=O)NCc2ccc(C(=N)N)cc2)c1.O=C(O)C(F)(F)F.O=C(O)C(F)(F)F [Example 190] | < 0.1 µM | > 30 µM | < 30 µM | <50.0 µM
23 | CC[C@H](C)NC(=O)c1cc(N)cc(-c2cnc(N[C@@H](C)CC)c(=O)n2CC(=O)NCc2ccc(C(=N)N)cc2)c1.O=C(O)C(F)(F)F.O=C(O)C(F)(F)F [Example 191] | < 0.1 µM | > 30 µM | < 30 µM | <50.0 µM
24 | CCCNc1ncc(-c2cc(N)cc(C(=O)N[C@@H](C)CC)c2)n(CC(=O)NCc2ccc(C(=N)N)cc2)c1=O.O=C(O)C(F)(F)F.O=C(O)C(F)(F)F [Example 192] | < 0.1 µM | > 30 µM | < 30 µM | <50.0 µM
25 | CC[C@H](C)NC(=O)c1cc(N)cc(-c2cnc(NC(C)C)c(=O)n2CC(=O)NCc2c(O)cc(C(=N)N)cc2O)c1 [Example 193] | > 0.1 µM | > 30 µM | > 30 µM | <50.0 µM
26 | CCNc1ncc(-c2cc(N)cc(C(=O)N[C@@H](C)CC)c2)n(CC(=O)NCc2ccc(C(=N)N)cc2)c1=O.O=C(O)C(F)(F)F.O=C(O)C(F)(F)F [Example 194] | < 0.1 µM | > 30 µM | > 30 µM | <50.0 µM
27 | CC[C@H](C)NC(=O)c1cc(N)cc(-c2cnc(NC(C)C)c(=O)n2CC(=O)NCc2c(O)cc(C(=N)N)cc2OC)c1 [Example 195] | < 0.1 µM | > 30 µM | > 30 µM | <50.0 µM
